Assay [1] deals with mitochondrial respiration. The assay is described as follows: Decrease of mitochondrial respiration. The note with it: dose administered to achieve protection.
The subject of assay [2] is Ventricular embryonic chick cardiomyocytes. The assay is described as follows: Return of synchronous cell contraction after simulated ischemia/reperfusion. The class given is cell-based. Conditions: 0.1 μM, first 10 minutes of reperfusion; control 0/7. As for the experimental part: (§1) Ventricular embryonic chick cardiomyocytes were prepared according to published procedure. (Vanden Hoek T L, Becker L B, Shao Z, et al. Reactive oxygen species released from mitochondria during brief hypoxia induce preconditioning in cardiomyocytes, J. Biol. Chem. […]; 273:18092-18098, which is incorporated herein by reference). 10-day old chicken embryo hearts were removed, ventricular tissue minced into 0.5 mm fragments, enzymatically dispersed with 0.025% trypsin (Life Technologies, New York, N.Y.), centrifuged, 0.7×10^6 cells were pipetted onto 25 mm coverslips, and incubated with 5% CO2. Coverslips were checked for non-muscle cell contamination. Experiments were performed with 3-5 day cardiac cell cultures, by which time a synchronously contracting layer of cells could be visualized and viability exceeded 95%.
(§2) Normoxic perfusate used for baseline conditions and for reperfusion subsequent to ischemia contained oxygenated balanced salt solution (BSS) with a PO2 OF 149 torr, PCO2 of 40 torr, pH of 7.4, and [K]^+ of 4.0 mEq/L, and glucose (5.6 mM). To simulate ischemia, the perfusate contained BSS with 2-deoxyglucose (2-DOG) (20 mM) rather than glucose and [K]^+ of 8.0 mEq/L. The ischemic perfusate was equilibrated with 80% N2 and 20% CO2 prior to use to produce a PO2 of ˜5 torr, a PCO2 of 144 torr and a final pH of 6.8.
Contractions were assessed by monitoring synchronous movement within the same field of cells as previously reported. A return of contraction following simulated ischemia/reperfusion was indicated when contractions could be seen throughout the field of cells following the three hour period of reperfusion.

For assay [3] the test system is unchanged. The assay can be described thus: Cell death (propidium iodide viability assay) after simulated ischemia/reperfusion. The note with it: first 10 minutes of reperfusion, control 47.1±3.0%, n=5. The class given is cell-based. The method, then:
Ventricular embryonic chick cardiomyocytes were prepared according to published procedure. […] Coverslips were checked for non-muscle cell contamination.
(§3) Coverslips with contracting cells were placed in a 1.2 mL Sykes-Moore perfusion chamber (Bellco Glass Inc., Vineland, N.J.). The chamber and inflow tubing were maintained at 37° C. Perfusate was supplied to the chamber (0.25 ml/min) via stainless steel tubing to minimize diffusive entry of ambient O2.
Cell viability was assessed with the fluorochrome propidium iodide (PI) (5 μM, Molecular Probes, Eugene, Oreg.). PI is excluded from viable cells, but enters cells and binds to chromatin after loss of cell membrane integrity. The cells then become highly fluorescent (excitation wavelength of 540 nm and a 590 nm band pass emission filter). PI was used to quantify cell death throughout the entire time of each experiment. […] All cells in the field studied were stained with PI at the end of the experiment by permeabilizing the cells with digitonin (300 μM). Percent cell death was then calculated as the PI fluorescence at any given time point relative to the maximal fluorescence value seen after digitonin exposure.
(§4) For each experiment a field of about 500 cells was observed. Treatment and control groups were matched in sets containing cells isolated and cultured on the same day so as to eliminate variability due to cell batch. Additional 25 mm coverslips were used for replicate experiments (“n”). Results are reported as means plus or minus S.E.M. and two-tailed unpaired t-tests comparing similar time points throughout ischemia and reperfusion were used as tests of significance, with p<0.05 considered to be significant.

The test system of assay [4] is reactive oxygen species (ROS) in embryonic chick cardiomyocytes. The assay can be described thus: Intracellular ROS (DCF fluorescence) at reperfusion after simulated ischemia. The class given is cell-based. Conditions: 0.1 μM, first 10 minutes of reperfusion; control 2.8±0.2 a.u.; n=3. As for the experimental part:
as §1, §3, §2
Intracellular oxidant stress due to ROS was monitored real time with the intracellular probe 2′,7′-dichlorofluorescin diacetate (DCFH-DA, 5 μM, Molecular Probes, Eugene, Oreg.) as described in published literature (Vanden Hoek, F L, et al., Reactive oxygen species released from mitochondria during brief hypoxia induce preconditioning in cardiomyocytes, J. Biol. Chem. […]; 273:18092-18098, which is incorporated by reference herein; Vanden Hoek, T L, et al, Preconditioning in cardiomyocytes protects by attenuating oxidant stress at reperfusion, Circ Res 2000; 86:534-540, which is incorporated by reference herein; Vanden Hoek, T L, Reperfusion, not simulated ischemia initiates intrinsic apoptosis injury in chick cardiomyocytes Am J. Physiol Heart Physiol 2003; 284:H141-150, which is incorporated by reference herein). DCFH-DA is cleaved by cellular esterases upon entry into the cells, trapping the nonfluorescent 2′,7′-dichlorofluorescin (DCFH) inside. ROS, particularly hydrogen peroxide (H2O2) and hydroxyl radical generate the fluorescent product dichlorofluorescein (DCF) by causing the oxidation of DCFH. Increases in DCF fluorescence result from DCFH oxidation to DCF. DCF fluorescence was measured at an excitation wavelength of 480 nm, and a 520 nm band pass emission filter. Attention was focused on the maximal DCF fluorescence intensity value during the first minutes of reperfusion for comparison. All measurements were expressed in arbitrary units (a.u.) of fluorescence.
as §4

Regarding `O=C(O)c1ccc2cc3ccccc3cc2c1` [2-anthracene-carboxylic acid], in assay [1], the “decrease of mitochondrial respiration” value is on record as 10-15%. In addition, the “return of synchronous contractions (groups with return/total)” value in assay [2] is listed as 5/5. Further, the “I/R induced cell death” value in assay [3] (0.1 μM) is recorded as 26.1±4.0%. In assay [3] (1 μM as printed in Example 4), the cell death is listed as 26.1±4.0%. For the same compound, the “maximal DCF fluorescence intensity” value in assay [4] is recorded as 1.7±0.1 a.u.
